Literature values as cited in paper PMC9800617, “Pharmacokinetics/pharmacodynamics of polymyxin B in patients with bloodstream infection caused by carbapenem-resistant Klebsiella pneumoniae” (Frontiers in Pharmacology, 2022).
Bridge positions count the residues as written; N and C are the ends. Square brackets hold non-standard residues; d marks the D form. Peptide text beside a SMILES is read from it. * marks the point of attachment. X1 = CC[C@H](C)CCCCC(=O)*; Dab = NCC[C@H](N)C(=O)O

Conditions: cited from earlier work
Description: Monte Carlo simulations were conducted for the probability of target attainment (PTA) analysis to guide the selection of optimal dosage regimens. Different dosage regimens were simulated by the PPK model and AUCss,24h were calculated. […] The maximal reductions in colony f ... || FIGURE 4 Probability of target attainment for different dosage regimens of polymyxin B against common carbapenem-resistant organisms according to PK/PD simulations. (A) Loading dose for three bacterial species. […] Or gani s m Dose Dosing MIC (mg/L) (m g/ k g) frequen c y 0.25 0.5 1 2 4 8 2 Loading 100.0 100.0 99.6 40.5 0 0 2.5 dose 100.0 100.0 100.0 71.0 2.0 0 Klebsiella 0.5 100.0 99.7 40.5 0.2 0 0 pneum oniae 0.75 Maintenance 100.0 100.0 90.6 11.0 0 0 1.0 dose, q12h 10 ...

SMILES: CC[C@H](C)CCCCC(=O)N[C@@H](CCN)C(=O)N[C@H](C(=O)N[C@@H](CCN)C(=O)N[C@H]1CCNC(=O)[C@H]([C@@H](C)O)NC(=O)[C@H](CCN)NC(=O)[C@H](CCN)NC(=O)[C@H](CC(C)C)NC(=O)[C@@H](Cc2ccccc2)NC(=O)[C@H](CCN)NC1=O)[C@@H](C)O [polymyxin B] (X1-[Dab]T[Dab][Dab][Dab][dF]L[Dab][Dab]T; lactam 4-C)
- unbound fraction in plasma (as used in PK/PD simulations, given as fraction): 0.42
- unbound fraction (f) in human plasma (human plasma, ref Sandri et al., 2013): 42%
